# Experimental data: ChEMBL document CHEMBL5346880, “ATP-competitive inhibitors of human DNA topoisomerase IIα with improved antiproliferative activity based on N-phenylpyrrolamide scaffold” (Eur J Med Chem, 2023)
# The source made the active and inactive calls. The calls are words filed in the database; no cut-off is given here.
# Key:
# [1] = molecular target: T1, DNA topoisomerase 2-alpha (Homo sapiens, UniProt P11388); assay: Inhibition of human DNA topoisomerase 2 alpha assessed as relaxation of supercoiled plasmid pNO1 DNA incubated for 30 mins by fluorescence based analysis
# CCRF-CEM = assay: Cytotoxicity against human CCRF-CEM cells assessed as reduction in cell viability at 10 uM by MTT assay; format: functional, cell-based
# [2] = Thermodynamic aqueous solubility of compound in PBS buffer at pH 7.4 at 25 degreeC measured after 24 hrs by UPLC analysis; format: physicochemical; conditions: read-out: Therm_solubility
# [3] = Metabolic stability in rat liver S9 fraction assessed as half life at 100 uM measured upto 120 mins in presence of NADPH by HPLC analysis; format: ADME, subcellular
# HCC 2998 = assay: Cytotoxicity against human HCC 2998 cells assessed as reduction in cell viability at 10 uM by MTT assay; format: functional, cell-based
# K562 = assay: Cytotoxicity against human K562 cells assessed as reduction in cell viability at 10 uM by MTT assay; format: functional, cell-based
# SR = assay: Cytotoxicity against human SR cells assessed as reduction in cell viability at 10 uM by MTT assay; format: functional, cell-based
# HCT-15 = assay: Cytotoxicity against human HCT-15 cells assessed as reduction in cell viability at 10 uM by MTT assay; format: functional, cell-based
# [4] = molecular target: T1, DNA topoisomerase 2-alpha; assay: Inhibition of human DNA topoisomerase 2 alpha assessed as ATP hydrolysis measured for 30 mins by absorbance based assay
# KM12 = assay: Cytotoxicity against human KM12 cells assessed as reduction in cell viability at 10 uM by MTT assay; format: functional, cell-based
# SW-620 = assay: Cytotoxicity against human SW620 cells assessed as reduction in cell viability at 10 uM by MTT assay; format: functional, cell-based
# MOLT-4 = assay: Cytotoxicity against human MOLT-4 cells assessed as reduction in cell viability at 10 uM by MTT assay; format: functional, cell-based
# COLO 205 = assay: Cytotoxicity against human COLO 205 cells assessed as reduction in cell viability at 10 uM by MTT assay; format: functional, cell-based
# HCT-116 = assay: Cytotoxicity against human HCT-116 cells assessed as reduction in cell viability at 10 uM by MTT assay; format: functional, cell-based
# HL-60 = assay: Cytotoxicity against human HL-60 cells assessed as reduction in cell viability at 10 uM by MTT assay; format: functional, cell-based
# HT-29 = assay: Cytotoxicity against human HT-29 cells assessed as reduction in cell viability at 10 uM by MTT assay; format: functional, cell-based
# DNA topoisomerase 2-beta = DNA topoisomerase 2-beta (Homo sapiens, UniProt Q02880); assay: Inhibition of human DNA topoisomerase 2 beta assessed as relaxation of supercoiled plasmid pBR322 DNA incubated for 30 mins by ethidium bromide staining based agarose gel electrophoresis
# DNA topoisomerase 1 = molecular target: T2, DNA topoisomerase 1 (Homo sapiens, UniProt P11387); assay: Inhibition of human DNA Topoisomerase 1 assessed as relaxation of supercoiled plasmid pBR322 DNA incubated for 30 mins by ethidium bromide staining based agarose gel electrophoresis
# T2 sequence (P11387 whole entry): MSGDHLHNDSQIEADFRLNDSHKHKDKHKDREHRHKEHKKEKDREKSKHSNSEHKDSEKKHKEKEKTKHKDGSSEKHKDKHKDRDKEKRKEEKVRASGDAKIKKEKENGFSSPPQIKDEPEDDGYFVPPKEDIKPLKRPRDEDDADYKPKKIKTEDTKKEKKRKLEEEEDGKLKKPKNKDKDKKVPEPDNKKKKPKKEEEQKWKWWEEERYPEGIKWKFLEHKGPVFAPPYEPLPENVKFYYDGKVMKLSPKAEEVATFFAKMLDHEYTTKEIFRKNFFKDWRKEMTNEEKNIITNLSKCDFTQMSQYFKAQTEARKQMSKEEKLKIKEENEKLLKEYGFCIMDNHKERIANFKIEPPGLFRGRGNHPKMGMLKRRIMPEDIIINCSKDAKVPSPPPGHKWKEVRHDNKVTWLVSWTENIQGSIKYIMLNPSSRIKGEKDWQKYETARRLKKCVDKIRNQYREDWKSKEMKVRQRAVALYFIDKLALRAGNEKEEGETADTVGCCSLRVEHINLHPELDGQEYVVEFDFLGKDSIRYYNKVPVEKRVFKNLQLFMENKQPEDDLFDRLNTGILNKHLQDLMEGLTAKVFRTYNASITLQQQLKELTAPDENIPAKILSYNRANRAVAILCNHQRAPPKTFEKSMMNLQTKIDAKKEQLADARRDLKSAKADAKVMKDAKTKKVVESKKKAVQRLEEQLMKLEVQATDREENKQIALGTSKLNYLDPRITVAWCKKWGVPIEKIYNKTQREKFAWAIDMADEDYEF
# T1 sequence (P11388 whole entry): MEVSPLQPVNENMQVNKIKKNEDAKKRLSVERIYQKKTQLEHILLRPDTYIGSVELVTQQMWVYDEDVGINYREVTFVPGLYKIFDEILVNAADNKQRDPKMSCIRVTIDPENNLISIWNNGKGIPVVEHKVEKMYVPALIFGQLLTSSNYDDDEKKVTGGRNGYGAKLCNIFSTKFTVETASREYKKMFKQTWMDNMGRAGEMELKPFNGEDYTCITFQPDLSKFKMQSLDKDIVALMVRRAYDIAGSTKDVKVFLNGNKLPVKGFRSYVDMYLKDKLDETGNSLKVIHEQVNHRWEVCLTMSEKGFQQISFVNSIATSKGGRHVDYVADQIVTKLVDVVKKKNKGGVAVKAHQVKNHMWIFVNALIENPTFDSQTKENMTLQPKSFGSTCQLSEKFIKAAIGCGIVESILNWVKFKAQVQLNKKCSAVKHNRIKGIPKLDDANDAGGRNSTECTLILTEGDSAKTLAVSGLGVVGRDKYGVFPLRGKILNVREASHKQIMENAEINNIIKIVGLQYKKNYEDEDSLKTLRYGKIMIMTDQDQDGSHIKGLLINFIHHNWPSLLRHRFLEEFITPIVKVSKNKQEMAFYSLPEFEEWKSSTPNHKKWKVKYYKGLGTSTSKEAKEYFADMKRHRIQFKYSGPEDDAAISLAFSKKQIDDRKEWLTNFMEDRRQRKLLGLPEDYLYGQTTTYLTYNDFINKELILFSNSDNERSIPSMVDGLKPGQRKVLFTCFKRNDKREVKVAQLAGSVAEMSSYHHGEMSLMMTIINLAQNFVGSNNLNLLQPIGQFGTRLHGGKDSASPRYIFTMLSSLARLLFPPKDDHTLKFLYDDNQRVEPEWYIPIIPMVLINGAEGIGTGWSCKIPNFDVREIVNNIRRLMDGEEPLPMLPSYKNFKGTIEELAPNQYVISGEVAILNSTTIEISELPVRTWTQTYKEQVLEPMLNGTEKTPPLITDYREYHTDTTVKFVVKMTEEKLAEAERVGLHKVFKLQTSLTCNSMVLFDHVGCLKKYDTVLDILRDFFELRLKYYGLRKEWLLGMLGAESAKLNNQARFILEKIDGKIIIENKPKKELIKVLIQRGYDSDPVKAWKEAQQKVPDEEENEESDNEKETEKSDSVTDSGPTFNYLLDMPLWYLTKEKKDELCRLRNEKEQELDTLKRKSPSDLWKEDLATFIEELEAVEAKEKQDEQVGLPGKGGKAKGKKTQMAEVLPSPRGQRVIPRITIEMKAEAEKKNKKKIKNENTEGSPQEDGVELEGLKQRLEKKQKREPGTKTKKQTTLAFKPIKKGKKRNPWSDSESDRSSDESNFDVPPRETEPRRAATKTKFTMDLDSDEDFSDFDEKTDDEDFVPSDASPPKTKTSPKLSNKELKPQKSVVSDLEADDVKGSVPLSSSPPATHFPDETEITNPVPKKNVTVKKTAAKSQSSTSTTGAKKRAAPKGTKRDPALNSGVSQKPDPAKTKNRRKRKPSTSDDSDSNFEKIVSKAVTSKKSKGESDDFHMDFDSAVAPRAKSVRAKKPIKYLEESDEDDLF
# DNA topoisomerase 2-beta, sequence (Q02880 whole entry): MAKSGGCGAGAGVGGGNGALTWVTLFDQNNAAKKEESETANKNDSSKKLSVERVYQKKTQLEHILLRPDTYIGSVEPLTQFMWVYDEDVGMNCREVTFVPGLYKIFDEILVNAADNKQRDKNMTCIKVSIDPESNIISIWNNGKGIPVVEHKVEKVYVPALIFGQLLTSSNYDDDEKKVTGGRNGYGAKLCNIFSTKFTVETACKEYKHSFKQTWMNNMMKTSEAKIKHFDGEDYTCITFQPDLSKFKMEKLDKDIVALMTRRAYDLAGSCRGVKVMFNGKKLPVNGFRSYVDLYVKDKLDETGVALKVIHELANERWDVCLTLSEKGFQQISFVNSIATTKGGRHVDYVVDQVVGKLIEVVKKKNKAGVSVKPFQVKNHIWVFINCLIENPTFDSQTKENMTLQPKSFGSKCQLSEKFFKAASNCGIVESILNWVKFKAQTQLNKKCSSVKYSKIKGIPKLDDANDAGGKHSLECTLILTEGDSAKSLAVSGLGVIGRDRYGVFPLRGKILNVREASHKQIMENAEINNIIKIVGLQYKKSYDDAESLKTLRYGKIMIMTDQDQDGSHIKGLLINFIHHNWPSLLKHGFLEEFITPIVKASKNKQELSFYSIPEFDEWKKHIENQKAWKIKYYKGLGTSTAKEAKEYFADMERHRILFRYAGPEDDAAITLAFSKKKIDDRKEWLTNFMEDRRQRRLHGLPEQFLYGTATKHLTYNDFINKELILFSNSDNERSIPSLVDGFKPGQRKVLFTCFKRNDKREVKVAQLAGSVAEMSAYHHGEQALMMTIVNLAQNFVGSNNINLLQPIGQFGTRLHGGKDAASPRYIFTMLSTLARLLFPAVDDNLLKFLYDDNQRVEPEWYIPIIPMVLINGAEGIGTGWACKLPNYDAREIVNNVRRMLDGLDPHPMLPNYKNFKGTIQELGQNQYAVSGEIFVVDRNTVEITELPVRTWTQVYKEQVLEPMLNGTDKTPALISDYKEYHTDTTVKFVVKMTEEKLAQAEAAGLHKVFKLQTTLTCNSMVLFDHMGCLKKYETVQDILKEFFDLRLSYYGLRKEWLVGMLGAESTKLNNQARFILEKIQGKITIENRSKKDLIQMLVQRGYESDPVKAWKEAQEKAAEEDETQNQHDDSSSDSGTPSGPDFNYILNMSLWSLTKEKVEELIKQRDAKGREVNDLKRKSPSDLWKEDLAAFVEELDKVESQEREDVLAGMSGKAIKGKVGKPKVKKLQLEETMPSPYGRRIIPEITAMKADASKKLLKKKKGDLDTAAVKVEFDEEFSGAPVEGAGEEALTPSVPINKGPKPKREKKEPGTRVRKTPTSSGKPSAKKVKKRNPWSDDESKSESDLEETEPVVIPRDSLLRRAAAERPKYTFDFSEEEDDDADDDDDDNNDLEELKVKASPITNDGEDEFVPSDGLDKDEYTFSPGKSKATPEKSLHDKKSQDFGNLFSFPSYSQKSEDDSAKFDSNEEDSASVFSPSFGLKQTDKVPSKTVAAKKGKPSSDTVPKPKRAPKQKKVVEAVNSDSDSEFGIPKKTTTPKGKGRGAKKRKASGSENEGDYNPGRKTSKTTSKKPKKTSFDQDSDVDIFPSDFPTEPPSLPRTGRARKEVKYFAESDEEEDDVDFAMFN
IC50 [1],solubility thermodynamic at 24 h [2],half-life at 100 µM [3],IC50 [4],IC50 (DNA topoisomerase 2-beta),IC50 (DNA topoisomerase 1),SMILES,Activity (CCRF-CEM),Activity (HCC 2998),Activity (K562),Activity (SR),Activity (HCT-15),Activity (KM12),Activity (SW-620),Activity (MOLT-4),Activity (COLO 205),Activity (HCT-116),Activity (HL-60),Activity (HT-29)
6000 nM,16 µM,> 5 h,2800 nM,–,–,Cc1[nH]c(C(=O)Nc2ccc(C(=O)NCCN)cc2OC(C)C)c(Cl)c1Cl.Cl,Active,Active,Active,Active,Active,Active,Active,Active,Active,Active,Active,Active
670 nM,9.2 µM,1.67 h,–,550 nM,> 5000 nM,Cc1[nH]c(C(=O)Nc2ccc(C(N)=O)cc2OCc2ccc(C(=O)NCCN)cc2)c(Cl)c1Cl.Cl.Cl,–,–,–,–,–,–,–,–,–,–,–,–
